What follows are molecules tested on P. aeruginosa, PAM1723, overexpressing the MexAB-OprM efflux pump. Conditions: lowest EPI concentration giving antibacterial activity with levofloxacin at 1/8 of its MIC, MHB, 20 h at 35° C.
Type: cell-based, Pseudomonas aeruginosa
Procedure: All EPI compounds were readily soluble in water and stock solutions were prepared at a final concentration of 10 mg/ml. Stock solutions were further diluted, according to the needs of the particular assay, in Mueller Hinton Broth (MHB). Stock solution was stored at […].
The checkerboard assay was performed in microtiter plates. […] EPIs were diluted in the y-axis, each row containing a single concentration of an EPI. […] The assay was performed in MHB with a final bacterial inoculum of 5 times 10^5 CFU/ml (from an early-log phase culture). Microtiter plates were incubated during 20 h at 35° C. and were read using a microtiter plate reader (Molecular Devices) at 650 nm as well as visual observation using a microtiter plate-reading mirror.

Row | Compound | MPC8 (Minimum Potentiating Concentration)
1 | NCCN(CCN)C(=O)CC[C@H](N)C(=O)N[C@H](CCc1ccc(C(F)(F)F)cc1)C(=O)Nc1cc(B(O)O)ccc1F [Compound 25, 3-((R)-2-((S)-2-amino-5-(bis(2-aminoethyl)amino)-5-oxopentanamido)-4-(4-(trifluoromethyl)phenyl)butanamido)-4-fluorophenylboronic acid] | B (B = MPC8 of 2.5 μg/ml to less than 10 μg/mL.)
2 | CC1(C)OB(O)c2cc(NC(=O)[C@@H](CCc3ccc(C(F)(F)F)cc3)NC(=O)[C@@H](N)CCC(=O)N(CCN)CCN)ccc21 [Compound 26, (S)-2-amino-N5,N5-bis(2-aminoethyl)-N1-((R)-1-(1-hydroxy-3,3-dimethyl-1,3-dihydrobenzo[c][1,2]oxaborol-6-ylamino)-1-oxo-4-(4-(trifluoromethyl)phenyl)butan-2-yl)pentanediamide] | A (A = MPC8 of less than 2.5 μg/mL.)
3 | CC1(C)OB(O)c2cc(NC(=O)[C@@H](CCc3ccc(C(F)(F)F)cc3)NC(=O)[C@@H](N)CCC(=O)NCC(O)(CN)CN)ccc21 [Compound 27, (S)-2-amino-N5-(3-amino-2-(aminomethyl)-2-hydroxypropyl)-N1-((R)-1-(1-hydroxy-3,3-dimethyl-1,3-dihydrobenzo[c][1,2]oxaborol-6-ylamino)-1-oxo-4-(4-(trifluoromethyl)phenyl)butan-2-yl)pentanediamide] | B (B = MPC8 of 2.5 μg/ml to less than 10 μg/mL.)
4 | NCCN(CCN)C(=O)CC[C@H](N)C(=O)N[C@H](CCc1ccc(C(F)(F)F)cc1)C(=O)Nc1cc(B(O)O)cc(F)c1F [Compound 28, 3-((R)-2-((S)-2-amino-5-(bis(2-aminoethyl)amino)-5-oxopentanamido)-4-(4-(trifluoromethyl)phenyl)butanamido)-4,5-difluorophenylboronic acid] | A (A = MPC8 of less than 2.5 μg/mL.)
5 | NCCN(CCN)C(=O)CC[C@H](N)C(=O)N[C@H](CCc1ccc(C(F)(F)F)cc1)C(=O)Nc1ccc(B(O)O)c(F)c1 [Compound 29, 4-((R)-2-((S)-2-amino-5-(bis(2-aminoethyl)amino)-5-oxopentanamido)-4-(4-(trifluoromethyl)phenyl)butanamido)-2-fluorophenylboronic acid] | B (B = MPC8 of 2.5 μg/ml to less than 10 μg/mL.)
6 | NCCN(CCN)C(=O)CC[C@H](N)C(=O)N[C@H](CCc1ccc(C(F)(F)F)cc1)C(=O)Nc1cc(B(O)O)c(F)cc1F [Compound 30, 5-((R)-2-((S)-2-amino-5-(bis(2-aminoethyl)amino)-5-oxopentanamido)-4-(4-(trifluoromethyl)phenyl)butanamido)-2,4-difluorophenylboronic acid] | C (C = MPC8 of 10 μg/mL or greater.)
7 | NCCN(CCN)C(=O)CC[C@H](N)C(=O)N[C@H](CCc1ccc(C(F)(F)F)cc1)C(=O)Nc1cc2c(c(C(F)(F)F)c1)COB2O [Compound 31, (S)-2-amino-N5,N5-bis(2-aminoethyl)-N1-((R)-1-(1-hydroxy-4-(trifluoromethyl)-1,3-dihydrobenzo[c][1,2]oxaborol-6-ylamino)-1-oxo-4-(4-(trifluoromethyl)phenyl)butan-2-yl)pentanediamide] | B (B = MPC8 of 2.5 μg/ml to less than 10 μg/mL.)
8 | NCCN(CCN)C(=O)CC[C@H](N)C(=O)N[C@H](CCc1ccc(C(F)(F)F)cc1)C(=O)Nc1ccc(F)c(B(O)O)c1 [Compound 32, 5-((R)-2-((S)-2-amino-5-(bis(2-aminoethyl)amino)-5-oxopentanamido)-4-(4-(trifluoromethyl)phenyl)butanamido)-2-fluorophenylboronic acid] | B (B = MPC8 of 2.5 μg/ml to less than 10 μg/mL.)
9 | NCCN(CCN)C(=O)CC[C@H](N)C(=O)N[C@H](CCc1ccc(C(F)(F)F)cc1)C(=O)Nc1cc(F)cc(B(O)O)c1 [Compound 33, 3-((R)-2-((S)-2-amino-5-(bis(2-aminoethyl)amino)-5-oxopentanamido)-4-(4-(trifluoromethyl)phenyl)butanamido)-5-fluorophenylboronic acid] | A (A = MPC8 of less than 2.5 μg/mL.)
10 | NCCN(CCN)C(=O)CC[C@H](N)C(=O)N[C@H](CCc1ccc(C(F)(F)F)cc1)C(=O)Nc1cc(F)c(F)c(B(O)O)c1 [Compound 34, 5-((R)-2-((S)-2-amino-5-(bis(2-aminoethyl)amino)-5-oxopentanamido)-4-(4-(trifluoromethyl)phenyl)butanamido)-2,3-difluorophenylboronic acid] | C (C = MPC8 of 10 μg/mL or greater.)
11 | NCCN(CCN)C(=O)CC[C@H](N)C(=O)N[C@H](CCc1ccc(C(F)(F)F)cc1)C(=O)Nc1ccc(B(O)O)cc1F [Compound 35, 4-((R)-2-((S)-2-amino-5-(bis(2-aminoethyl)amino)-5-oxopentanamido)-4-(4-(trifluoromethyl)phenyl)butanamido)-3-fluorophenylboronic acid] | B (B = MPC8 of 2.5 μg/ml to less than 10 μg/mL.)
12 | NCCN(CCN)C(=O)CC[C@H](N)C(=O)N[C@H](CCc1ccc(C(F)(F)F)cc1)C(=O)NC[C@@H]1OB(O)c2ccccc21 [Compound 37, (S)-2-amino-N5,N5-bis(2-aminoethyl)-N1-((R)-1-(((R)-1-hydroxy-1,3-dihydrobenzo[c][1,2]oxaborol-3-yl)methylamino)-1-oxo-4-(4-(trifluoromethyl)phenyl)butan-2-yl)pentanediamide] | A (A = MPC8 of less than 2.5 μg/mL.)
13 | CC1(C)OB(O)c2cc(NC(=O)[C@@H](CCc3ccc(C(F)(F)F)cc3)NC(=O)[C@@H](N)CCC(=O)N[C@@H]3C[C@H](N)C[C@H](N)C3)ccc21 [Compound 38, (S)-2-amino-N5-((1s,3R,5S)-3,5-diaminocyclohexyl)-N1-((R)-1-(1-hydroxy-3,3-dimethyl-1,3-dihydrobenzo[c][1,2]oxaborol-6-ylamino)-1-oxo-4-(4-(trifluoromethyl)phenyl)butan-2-yl)pentanediamide] | A (A = MPC8 of less than 2.5 μg/mL.)
14 | CC1(C)OB(O)c2cc(NC(=O)[C@@H](CCc3ccc(C(F)(F)F)cc3)NC(=O)[C@@H](N)CCC(=O)NC(CN)CN)ccc21 [Compound 39, (S)-2-amino-N^5-(1,3-diaminopropan-2-yl)-N^1-((R)-1-(1-hydroxy-3,3-dimethyl-1,3-dihydrobenzo[c][1,2]oxaborol-6-ylamino)-1-oxo-4-(4-(trifluoromethyl)phenyl)butan-2-yl)pentanediamide] | A (A = MPC8 of less than 2.5 μg/mL.)
15 | CC1(C)OB(O)c2cc(NC(=O)[C@@H](CCc3ccc(C(F)(F)F)cc3)NC(=O)[C@@H](N)CCC(=O)N(C[C@@H](O)CN)C[C@@H](O)CN)ccc21 [Compound 40, (S)-2-amino-N^5,N^5-bis((S)-3-amino-2-hydroxypropyl)-N^1-((R)-1-(1-hydroxy-3,3-dimethyl-1,3-dihydrobenzo[c][1,2]oxaborol-6-ylamino)-1-oxo-4-(4-(trifluoromethyl)phenyl)butan-2-yl)pentanediamide] | B (B = MPC8 of 2.5 μg/ml to less than 10 μg/mL.)
16 | CC1(C)OB(O)c2cc(NC(=O)[C@@H](CCc3ccc(C(F)(F)F)cc3)NC(=O)[C@@H](N)CCC(=O)N3C[C@@H](N)C[C@H]3CN)ccc21 [Compound 41, (S)-2-amino-5-((2S,4S)-4-amino-2-(aminomethyl)pyrrolidin-1-yl)-N-((R)-1-(1-hydroxy-3,3-dimethyl-1,3-dihydrobenzo[c][1,2]oxaborol-6-ylamino)-1-oxo-4-(4-(trifluoromethyl)phenyl)butan-2-yl)-5-oxopentanamide] | B (B = MPC8 of 2.5 μg/ml to less than 10 μg/mL.)
17 | CC1(C)OB(O)c2cc(NC(=O)[C@@H](CCc3ccc(C(F)(F)F)cc3)NC(=O)[C@@H](N)CCC(=O)N3C4CCC3[C@H](CN)[C@@H]4CN)ccc21 [Compound 42, (2S)-2-amino-5-((2R,3S)-2,3-bis(aminomethyl)-7-azabicyclo[2.2.1]heptan-7-yl)-N-((R)-1-(1-hydroxy-3,3-dimethyl-1,3-dihydrobenzo[c][1,2]oxaborol-6-ylamino)-1-oxo-4-(4-(trifluoromethyl)phenyl)butan-2-yl)-5-oxopentanamide] | A (A = MPC8 of less than 2.5 μg/mL.)
18 | NCCN(CCN)C(=O)CC[C@H](N)C(=O)N[C@H](Cc1ccc(C(F)(F)F)cc1)C(=O)Nc1cnc2ccc(B(O)O)cc2c1 [Compound 43, 3-((R)-2-((S)-2-amino-5-(bis(2-aminoethyl)amino)-5-oxopentanamido)-3-(4-(trifluoromethyl)phenyl)propanamido)quinolin-6-ylboronic acid] | B (B = MPC8 of 2.5 μg/ml to less than 10 μg/mL.)
19 | NCCN(CCN)C(=O)CC[C@H](N)C(=O)N[C@H](CCc1ccc(C(F)(F)F)cc1)C(=O)Nc1cnc2ccc(B(O)O)cc2c1 [Compound 44, 3-((R)-2-((S)-2-amino-5-(bis(2-aminoethyl)amino)-5-oxopentanamido)-4-(4-(trifluoromethyl)phenyl)butanamido)quinolin-6-ylboronic acid] | A (A = MPC8 of less than 2.5 μg/mL.)
20 | N[C@@H]1C[C@H](N)C[C@H](NC(=O)CC[C@H](N)C(=O)N[C@H](CCc2ccc(C(F)(F)F)cc2)C(=O)Nc2ccc3c(c2)B(O)OC3)C1 [Compound 66, (S)-2-amino-N^5-((1s,3R,5S)-3,5-diaminocyclohexyl)-N^1-((R)-1-(1-hydroxy-1,3-dihydrobenzo[c][1,2]oxaborol-6-ylamino)-1-oxo-4-(4-(trifluoromethyl)phenyl)butan-2-yl)pentanediamide] | B (B = MPC8 of 2.5 μg/ml to less than 10 μg/mL.)

Reference: patent US8933018B2, “Boron containing polybasic bacterial efflux pump inhibitors and therapeutic uses thereof” (priority 2011, dated 2015)
